Test results taken from patent publication US4603217A, “Ester substituted alkyl-2-(2,6-dichloroanilino)phenyl acetates” (priority 1983, dated 1986).

Assays:
carrageenan edema = assay: inhibition test of carrageenan edema employing a foot-pad edema method; type: in vivo, male Wister rats; details: for ED50: Rattus norvegicus, male Wister rats, foot-pad edema, read-out: ED50 for inhibition for carrageenan edema; for anti-inflammatory activity compared with DF: relative to DF
From the text: Anti-inflammatory action was investigated according to the method of Winter et al [cf. Pro. Soc. Exp. Biol. Med., 111, 544 (1962)] by the inhibition test of carrageenan edema employing a foot-pad edema method using carrageenan as an irritating agent and male Wister rats weighing 130 to 170 g.

[1] = Gastrointestinal ulcer formation action (gastric ulceration); details: rat, po
Method: Gastrointestinal ulcer formation action, which is a principal side effect of an acid anti-inflammatory drug, was investigated according to the method of Okabe et al [cf. […] The compounds of the present invention, IM, DF and acemethacin were suspended in 5% Tween-80 solution and administered orally 1 ml/100 g body weight to the rats, respectively. At 6 hrs after the administration, the state of glandstomach was observed by means of a dissecting microscope whether the ulcer having a diameter more than 1 mm was generated or not.

in vivo = details: mouse, po
[2] = Rate of hydrolysis in rat plasma; type: in vitro ADME; details: in 1 ml of plasma rat (37° C., incubation for 1 hr)
Method: **in 1 ml of plasma rat (37° C., incubation for 1 hr)

ultraviolet erythema = assay: inhibition action for ultraviolet erythema; type: in vivo, male Hartley guinea pigs; parameters: 2 hs after the irradiation, Average ± standard error / 3 hs after the irradiation, Average ± standard error / 5 hs after the irradiation, Average ± standard error: scale not given here; 2 hs after the irradiation, Rate for inhibition / 3 hs after the irradiation, Rate for inhibition / 5 hs after the irradiation, Rate for inhibition: unit not given here; details: for 2 hs after the irradiation, Average ± standard error / 2 hs after the irradiation, Rate for inhibition: 2 hs after irradiation; for 2 hs after the irradiation, Average ± standard error / 2 hs after the irradiation, Rate for inhibition / 3 hs after the irradiation, Average ± standard error / 3 hs after the irradiation, Rate for inhibition / 5 hs after the irradiation, Average ± standard error / 5 hs after the irradiation, Rate for inhibition: guinea pigs; for 3 hs after the irradiation, Average ± standard error / 3 hs after the irradiation, Rate for inhibition: 3 hs after irradiation; for 5 hs after the irradiation, Average ± standard error / 5 hs after the irradiation, Rate for inhibition: 5 hs after irradiation
Method: With respect to Compounds 1 to 3, 15 and 21 which are especially useful as an anti-inflammatory drug, IM and DF, inhibition action for ultraviolet erythema was investigated according to the method of Adames et al [cf. Nature, London, 181, 773 (1958)] using guinea pigs as follows: Male Hartley guinea pigs weighing 250 to 350 g were shaved at their sides the day before and two hrs before the ultraviolet irradiation. To the guinea pigs were administered orally Compounds 1 to 3, 15 and 21, IM and DF in amounts as described in Table 2, respectively. To the control group was administered orally only Tween-80. At 1 hr after the time of administration, the guinea pigs were irradiated at their shaved sides by ultraviolet beam for 40 seconds.
The reaction of the ultraviolet erythema was evaluated at 2 hrs, 3 hrs and 5 hrs after irradiation according to the method of Winder et al [cf. Arch. Int. Pharmacodyn., 116, 261 (1958)]. […] Compounds 1 and 2 show a duration of the pharmacological effect over 5 hrs, contrary to that IM has a duration of 2 hrs.

COc1ccc2c(c1)c(CC(=O)OCC(=O)O)c(C)n2C(=O)c1ccc(Cl)cc1 [Acemethacin, acemethacin, reference compound] gave an ED50 (carrageenan edema) of 8.3 mg/kg, a TD50 at 6 h ([1]; in vivo) of 17.5 mg/kg and an LD50 (in vivo) of 45 mg/kg. The metabolised at 1 h [2] was 4.2%.
For C/C=C/C(=O)OCCOC(=O)Cc1c(C)n(C(=O)c2ccc(Cl)cc2)c2ccc(OC)cc12 [Compound 4], the ED50 (carrageenan edema) was 15 mg/kg, the TD50 at 6 h [1] was 40 mg/kg and the LD50 (in vivo) was 85 mg/kg. The metabolised at 1 h [2] was 83%.
In the case of COc1ccc2c(c1)c(CC(=O)OCCOC(=O)C=C(C)C)c(C)n2C(=O)c1ccc(Cl)cc1 [Compound 5, 2-(3,3-Dimethylacryloyloxy)ethyl[1-(p-chlorobenzoyl)-5-methoxy-2-methyl-3-indolyl]acetate], the ED50 (carrageenan edema) is reported as 15 mg/kg, the TD50 at 6 h [1] is reported as 40 mg/kg and the LD50 (in vivo) is reported as 62 mg/kg. It also gave a metabolised at 1 h [2] of 75.3%.
CC=CC=CC(=O)OCCOC(=O)Cc1c(C)n(C(=O)c2ccc(Cl)cc2)c2ccc(OC)cc12 [Compound 6, 2-(2,4-Hexadienoyloxy)ethyl[1-(p-chlorobenzoyl)-5-methoxy-2-methyl-3-indolyl]acetate] gave an ED50 (carrageenan edema) of 13 mg/kg, a TD50 at 6 h [1] of 40 mg/kg and an LD50 (in vivo) of 85 mg/kg. The metabolised at 1 h [2] was 69%.
Compound COc1ccc2c(c1)c(CC(=O)OCCOC(=O)C=C(C)CCC=C(C)C)c(C)n2C(=O)c1ccc(Cl)cc1 [Compound 7, 2-(3,7-Dimethyl-2,6-octadienoyloxy)ethyl[1-(p-chlorobenzoyl)-5-methoxy-2-methyl-3-indolyl]acetate] has an ED50 (carrageenan edema) greater than 20 mg/kg, a TD50 at 6 h [1] greater than 20 mg/kg and an LD50 (in vivo) of 780 mg/kg. The metabolised at 1 h [2] was 60.5%.
Work on COc1ccc2c(c1)c(CC(=O)OC(C)OC(C)=O)c(C)n2C(=O)c1ccc(Cl)cc1 (centres unmarked) [Compound 8, 1-(Acetoxy)ethyl[1-(p-chlorobenzoyl)-5-methoxy-2-methyl-3-indolyl]acetate] yielded an ED50 (carrageenan edema) of 6 mg/kg, a TD50 at 6 h [1] of 20 mg/kg and an LD50 (in vivo) of 65 mg/kg. For the same compound, the metabolised at 1 h [2] was 99.8%.
CCC(=O)OC(C)OC(=O)Cc1c(C)n(C(=O)c2ccc(Cl)cc2)c2ccc(OC)cc12 (centres unmarked) [Compound 9, 1-(Propionyloxy)ethyl[1-(p-chlorobenzoyl)-5-methoxy-2-methyl-3-indolyl]acetate] gave an ED50 (carrageenan edema) of 6 mg/kg, a TD50 at 6 h [1] of 20 mg/kg and an LD50 (in vivo) of 65 mg/kg. For the same compound, the metabolised at 1 h [2] was 97.3%.
In the case of COc1ccc2c(c1)c(CC(=O)OC(C)OC(=O)C=C(C)C)c(C)n2C(=O)c1ccc(Cl)cc1 (centres unmarked) [Compound 11, 1-(3,3-Dimethylacryloyloxy)ethyl[1-(p-chlorobenzoyl)-5-methoxy-2-methyl-3-indolyl]acetate], the ED50 (carrageenan edema) is reported as 15 mg/kg, the TD50 at 6 h [1] is reported as 10 mg/kg and the LD50 (in vivo) is reported as 45 mg/kg. It also gave a metabolised at 1 h [2] of 85.4%.
In the case of CC=CC=CC(=O)OCOC(=O)Cc1ccccc1Nc1c(Cl)cccc1Cl [Compound 15, 2,4-Hexadienoyloxymethyl-2-(2,6-dichloroanilino)phenylacetate], the ED50 (carrageenan edema) is reported as 20 mg/kg, the “anti-inflammatory activity compared with DF” value (carrageenan edema) is reported as “almost equal anti-inflammatory activity to DF” and the “2 hs after the irradiation, Average ± standard error” value (ultraviolet erythema; 3 mg/kg orally) is reported as 1.17 ± 0.167. The “2 hs after the irradiation, Rate for inhibition” value (ultraviolet erythema; 3 mg/kg orally) was 56.2, the “3 hs after the irradiation, Average ± standard error” value (ultraviolet erythema; 3 mg/kg orally) was 2.0 ± 0.258 and the “3 hs after the irradiation, Rate for inhibition” value (ultraviolet erythema; 3 mg/kg orally) was 29.3. For the same compound, the “5 hs after the irradiation, Average ± standard error” value (ultraviolet erythema; 3 mg/kg orally) was 3.00 ± 0, the “5 hs after the irradiation, Rate for inhibition” value (ultraviolet erythema; 3 mg/kg orally) was 0 and the “2 hs after the irradiation, Average ± standard error” value (ultraviolet erythema; 10 mg/kg orally) was 0.67 ± 0.211. The “2 hs after the irradiation, Rate for inhibition” value (ultraviolet erythema; 10 mg/kg orally) was 74.9, the “3 hs after the irradiation, Average ± standard error” value (ultraviolet erythema; 10 mg/kg orally) was 2.3 ± 0.333 and the “3 hs after the irradiation, Rate for inhibition” value (ultraviolet erythema; 10 mg/kg orally) was 18.7. The “5 hs after the irradiation, Average ± standard error” value (ultraviolet erythema; 10 mg/kg orally) was 2.83 ± 0.167, the “5 hs after the irradiation, Rate for inhibition” value (ultraviolet erythema; 10 mg/kg orally) was 0 and the “inhibition effect for ultraviolet erythema compared with IM and DF” value (ultraviolet erythema; relative to IM and DF) was “equal inhibition effect for ultraviolet erythema to that of IM and DF”. The LD50 (in vivo) was 500 mg/kg and the metabolised at 1 h [2] was 80.5%.
In the case of CC(=O)OCCOC(=O)Cc1ccccc1Nc1c(Cl)cccc1Cl [Compound 16, 2-(Acetoxy)ethyl-2-(2,6-dichloroanilino)-phenylacetate], the ED50 (carrageenan edema) is reported as 20 mg/kg, the “anti-inflammatory activity compared with DF” value (carrageenan edema) is reported as “almost equal anti-inflammatory activity to DF” and the LD50 (in vivo) is reported as 610 mg/kg. The metabolised at 1 h [2] was 93.7%.
